Columns and labels:
Assay in all cases: relative viability (nuclei count vs DMSO), 5 days (fraction); higher = more cells survive
Crizotinib + Decitabine = compound: C[C@@H](Oc1cc(-c2cnn(C3CCNCC3)c2)cnc1N)c1c(Cl)ccc(F)c1Cl [Crizotinib] + Nc1ncn([C@H]2C[C@H](O)[C@@H](CO)O2)c(=O)n1 [Decitabine] (partner 2 µM)
Procedure, shortened: (§1)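 Values are medians from duplicate plates. Each reflects relative viability, defined as the nuclei count of treated wells over that of vehicle wells. Lung cancer cell lines in 1536-well plates were pin-tool dosed one day after seeding with one drug alone or with a fixed anchor-drug dose plus five library-drug doses (not always all listed) in √10 steps, then fixed, stained and imaged at 4× after 5 days.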

Crizotinib + Linsitinib = compound: C[C@@H](Oc1cc(-c2cnn(C3CCNCC3)c2)cnc1N)c1c(Cl)ccc(F)c1Cl [Crizotinib] + C[C@]1(O)C[C@@H](c2nc(-c3ccc4ccc(-c5ccccc5)nc4c3)c3c(N)nccn32)C1 [Linsitinib] (partner 1 µM)
Procedure, shortened: as §1

Carfilzomib + Linsitinib = compound: CC(C)C[C@H](NC(=O)[C@H](CCc1ccccc1)NC(=O)CN1CCOCC1)C(=O)N[C@@H](Cc1ccccc1)C(=O)N[C@@H](CC(C)C)C(=O)[C@@]1(C)CO1 [Carfilzomib] + C[C@]1(O)C[C@@H](c2nc(-c3ccc4ccc(-c5ccccc5)nc4c3)c3c(N)nccn32)C1 [Linsitinib] (partner 1 µM)
Procedure, shortened: as §1

Olaparib + Alpelisib = compound: O=C(c1cc(Cc2n[nH]c(=O)c3ccccc23)ccc1F)N1CCN(C(=O)C2CC2)CC1 [Olaparib] + Cc1nc(NC(=O)N2CCC[C@H]2C(N)=O)sc1-c1ccnc(C(C)(C)C(F)(F)F)c1 [Alpelisib] (partner 2 µM)
Procedure, shortened: as §1

Cell Line | relative viability (Crizotinib + Decitabine; first compound 0.01 µM) | relative viability (Crizotinib + Decitabine; first compound 0.03162 µM) | relative viability (Crizotinib + Decitabine; first compound 0.1 µM) | relative viability (Crizotinib + Decitabine; first compound 0.3162 µM) | relative viability (Crizotinib + Decitabine; first compound 1 µM) | relative viability (Crizotinib + Linsitinib; first compound 0.01 µM) | relative viability (Crizotinib + Linsitinib; first compound 0.03162 µM) | relative viability (Crizotinib + Linsitinib; first compound 0.3162 µM) | relative viability (Crizotinib + Linsitinib; first compound 1 µM) | relative viability (Carfilzomib + Linsitinib; first compound 0.001 µM) | relative viability (Carfilzomib + Linsitinib; first compound 0.003162 µM) | relative viability (Carfilzomib + Linsitinib; first compound 0.01 µM) | relative viability (Carfilzomib + Linsitinib; first compound 0.03162 µM) | relative viability (Carfilzomib + Linsitinib; first compound 0.1 µM) | relative viability (Olaparib + Alpelisib; first compound 0.08 µM) | relative viability (Olaparib + Alpelisib; first compound 0.253 µM) | relative viability (Olaparib + Alpelisib; first compound 2.53 µM) | relative viability (Olaparib + Alpelisib; first compound 8 µM) | relative viability (Crizotinib + Linsitinib; first compound 0.1 µM)
HCC-827 | 0.333 | 0.241 | 0.328 | 0.306 | 0.321 | 0.927 | 0.931 | 0.946 | 0.958 | 0.941 | 0.979 | 1.05 | 0.848 | 0.406 | 1.02 | 0.934 | 0.828 | 0.876 | –
NCI-H1651 | 0.592 | 0.407 | 0.63 | 0.326 | 0.591 | 1.01 | 1.01 | 1.06 | 1.07 | 0.982 | 0.965 | 0.487 | 0.0962 | 0.0748 | 0.927 | 0.869 | 0.714 | 0.356 | 0.955
EKVX | 0.29 | 0.339 | 0.323 | 0.336 | 0.337 | 1 | 0.998 | 1 | 0.975 | 0.927 | 1.2 | 1.08 | 1.01 | 0.33 | 1.11 | 0.872 | 0.844 | 0.903 | 1.02
201T | 0.803 | 0.848 | 0.871 | 0.845 | 0.893 | 1.02 | – | 1.03 | 1.12 | 0.992 | 1.07 | 1.1 | 1.09 | 1.02 | 0.985 | 0.938 | 1.01 | 0.98 | 1.04
NCI-H2009 | 0.382 | 0.372 | 0.348 | 0.387 | 0.392 | 1.17 | 1.17 | 1.17 | 1.17 | 1.24 | 1.28 | 1.22 | 0.494 | 0.0639 | 1.28 | 1.03 | 1.09 | 0.976 | 1.24
NCI-H1975 | 0.404 | 0.322 | 0.466 | 0.31 | 0.39 | 0.926 | 1.05 | 1.07 | 1.01 | 0.885 | 0.896 | 0.562 | 0.129 | 0.132 | 0.764 | 0.594 | 0.692 | 0.612 | 0.91
NCI-H2347 | 0.69 | 0.616 | 0.674 | 0.608 | 0.661 | 0.913 | – | – | 0.993 | 0.983 | 1.06 | 0.962 | 0.785 | 0.391 | 1.11 | 0.978 | 0.932 | 0.783 | 1.03
PC-14 | 0.182 | 0.248 | 0.225 | 0.244 | 0.248 | 0.913 | – | 0.905 | 1.02 | 1.09 | 0.937 | 1.08 | 0.215 | 0.12 | 0.988 | 0.859 | 0.931 | 0.792 | 0.974
COR-L23 | 0.346 | 0.463 | 0.454 | 0.386 | 0.392 | – | 0.876 | 0.802 | 0.925 | 0.939 | 1.05 | 0.867 | 0.0469 | 0.0604 | 0.811 | 0.586 | 0.532 | 0.357 | 0.844
LK-2 | 0.293 | 0.22 | 0.289 | 0.236 | 0.284 | 0.431 | 0.523 | 0.458 | 0.709 | 0.815 | 0.837 | 0.497 | 0.18 | 0.177 | 1.07 | 1.03 | 1.25 | 0.945 | 0.541
NCI-H358 | 0.184 | 0.215 | 0.2 | 0.241 | 0.214 | 0.663 | 0.658 | 0.779 | 0.899 | 0.793 | 0.977 | 0.717 | 0.15 | 0.16 | 0.862 | 0.808 | 0.868 | 0.773 | 0.744
ABC-1 | 1.09 | – | 1.02 | – | 1.15 | 0.95 | 0.843 | 1.09 | – | 0.837 | 0.665 | 0.527 | 0.235 | 0.242 | 0.958 | 1 | 0.96 | 0.981 | 1.12
NCI-H520 | 0.474 | 0.47 | 0.496 | 0.533 | 0.482 | 0.831 | 0.97 | 1.04 | 1.05 | 1.01 | 1.09 | 0.667 | 0.152 | 0.151 | 1.05 | 0.843 | 0.814 | 0.529 | 0.985
NCI-H838 | 0.433 | 0.473 | 0.473 | 0.483 | 0.474 | 0.938 | 1.05 | 0.882 | 1.01 | 1.02 | 1.02 | 1.05 | 0.676 | 0.116 | 1.09 | 0.933 | 0.978 | 0.944 | –
NCI-H2126 | 0.51 | 0.568 | 0.579 | 0.565 | 0.591 | 0.73 | 0.724 | 0.691 | 0.717 | 0.703 | 0.793 | 0.695 | 0.764 | 0.58 | 0.794 | 0.743 | 0.712 | 0.728 | 0.706
HCC-366 | 0.31 | 0.294 | 0.406 | – | 0.36 | 0.64 | 0.679 | – | 0.608 | 0.657 | 0.666 | 0.611 | 0.557 | 0.0209 | 0.392 | 0.31 | 0.3 | 0.15 | 0.649
NCI-H2085 | 0.565 | 0.518 | 0.554 | 0.54 | 0.595 | 0.8 | 1.03 | 0.926 | 0.836 | 0.843 | 0.835 | 0.778 | 0.418 | 0.235 | 1.08 | 0.883 | 0.92 | 0.835 | 1

Source: the supplement of paper PMC10307832
